According to patent US20250186452A1, “NOVEL USE OF QUINOLINE COMPOUND” (TARAPEUTICS SCIENCE INC., priority 2022, published 2025):

Experiments:
[1] = molecular target: T1, TEL-CSF1R-BaF3 (Homo sapiens, UniProt P07333); experiment: Proliferation of TEL-CSF1R-BaF3 cells (CCK-8, 72 hours); assay type: cell-based; details: 72 hours incubation, CCK-8
T1 construct: expressed in transfected cells; host or cells: mouse BaF3 cells (ATCC), retroviral transduction with MSCV-Puro vector, IL-3 withdrawn; the other entry of the earlier key: ETV6 (P41212, Transcription factor ETV6)
T1 sequence (P07333 582-910 limits assumed): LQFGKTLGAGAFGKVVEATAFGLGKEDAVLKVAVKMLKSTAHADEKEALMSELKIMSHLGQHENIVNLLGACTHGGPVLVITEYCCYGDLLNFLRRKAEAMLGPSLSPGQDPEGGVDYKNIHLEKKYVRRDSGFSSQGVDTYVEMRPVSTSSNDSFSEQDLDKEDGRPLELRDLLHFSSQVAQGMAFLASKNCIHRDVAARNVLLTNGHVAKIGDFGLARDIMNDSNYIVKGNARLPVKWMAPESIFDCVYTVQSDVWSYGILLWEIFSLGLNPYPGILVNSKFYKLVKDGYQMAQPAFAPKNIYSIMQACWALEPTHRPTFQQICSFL
Description: (§1) The incubated cells were detected by CCK-8 (purchased from MedChem Express, China) cell viability detection kit (CCK-8 can be reduced by dehydrogenases in living cells to a highly water-soluble yellow formazan product, and the amount of the generated formazan product is proportional to the number of living cells). The number of living cells was quantified by a microplate reader, and the GI50 for each compound was calculated (the results are shown in Table 2).
The construction method of the TEL-CSF1R-BaF3 cell line (a cell line stably expressing CSF1R kinase) was as follows: the sequence of human CSF1R kinase region was amplified by PCR and inserted into the MSCV-Puro vector (Clontech) with an N-terminal TEL fragment, and stably transferred into mouse BaF3 cells (purchased from ATCC, USA) by a retroviral method, and IL-3 growth factor was removed, finally a cell line dependent on CSF1R transferred protein was obtained.

[2] = system: M-NSF-60; experiment: Proliferation of M-NSF-60 cells with M-CSF (CCK-8, 72 hours); assay type: cell-based, mouse; details: Mus musculus; M-CSF 50 ng/ml in medium, 72 hours incubation, CCK-8; read-out: M-NSF-60 (GI50/μM)
Description: as §1

[3] = system: RAW264.7 cells; experiment: Cell transformation experiment: IL-10 secretion of M2-induced RAW264.7 cells (ELISA); assay type: cell-based, mouse
Description: RAW264.7 cells (purchased from ATCC, USA) were sucked up and down with a pipette, and the cells were added to a centrifuge tube, placed in a centrifuge, and centrifuged at 800 rpm for 4 minutes.

[4] = system: 4T1 cells; experiment: In vivo efficacy in 4T1 cell tumor transplantation mouse model; details: 4T1 model
Description: In this example, the experimental effects of Compound 2 and the control compound PLX3397 (purchased from MedChem Express, China) in MC38 and 4T1 mouse models were tested respectively.
The experimental procedure was as follows: • (1) C57BL/6J male mice for use as MC38 transplanted tumor model and Balb/c male mice for use as 4T1 transplanted tumor model, which were 6 weeks old, were purchased from GemPharmatech Co., Ltd, Jiangsu. All the above mice were raised in an SPF laboratory, and the drinking water and padding had been sterilized by high pressure sterilization. All operations related to mice were performed under sterile conditions. • (2) On day 0, approximately 1×10^6 MC38 cells (purchased from ATCC) were injected subcutaneously into the left back of each of the C57BL/6J mice, and approximately 1×10^6 4T1 cells (purchased from ATCC) were injected subcutaneously into the left back of each of the Balb/c mice. • (3) For the MC38 mouse model, starting from the 6th day, the corresponding mice were orally administered with methylcellulose (HKI) (purchased from China National Pharmaceutical Group Corporation) solvent once a day (5 mice); Compound 2 at a dose of 50 mg/kg mouse weight once a day (5 mice); PLX3397 at a dose of 50 mg/kg mouse weight once a day (5 mice). For the 4T1 mouse model, starting from the 6th day, the corresponding mice were orally administered with 10% HS-15 (purchased from BASF, Germany) solvent (5 mice); Compound 2 at a dose of 50 mg/kg mouse weight once a day (5 mice); PLX3397 at a dose of 50 mg/kg mouse weight once a day (5 mice). • (4) Starting from the 6th day, the length/width of the subcutaneous tumor was measured with a vernier caliper every day, and the weight of the mice was recorded every day to determine the effects of Compound 2 and control compound PLX3397 on the weight of mice in different model mice. The results are shown in FIGS. 3 and 6. • (5) The growth trends of subcutaneous tumors in mice of different models were statistically analyzed. The tumor volume was calculated using the following method: length×width×width/2 mm^3. The results are shown in FIGS. 4 and 7. • (6) Isolation of tumor-infiltrating lymphocytes: Tumor tissue was first minced (tissue block less than 1 mm^3) with a surgical blade, resuspended in 6 ml of digestion solution (collagenase IV and 0.005% DNaseI enzyme, both purchased from Sigma, USA), and the mixture was transferred to a 15-ml centrifuge tube. The centrifuge tube was then placed in a shaker at 37° C. and digested with shaking at 220 r/min for 2 hours. The cells were sieved through a 200-mesh sieve and collected in a 50-ml centrifuge tube, and centrifuged at 1500 rpm for 10 minutes. The supernatant was then discarded, and 10 ml of DMEM medium (10% FBS) (purchased from GIBCO, USA) was added to the tube to terminate the digestion. The tube was placed in a centrifuge, and centrifuged at 1500 rpm for another 10 minutes. The supernatant was discarded. At the same time, Percoll separation solution (purchased from Millipore, USA) was prepared, and 90% Percoll separation working solution was prepared using 10×PBS. To a 15 ml centrifuge tube, 3-4 ml of 70% Percoll separation solution was added. The cells were resuspended in 4 ml of 40% Percoll separation solution, and the cell mixture was added to the 70% Percoll separation solution. The centrifuge tube was placed in a centrifuge and subjected to density gradient centrifugation at 25° C., 1260 g, for 30 minutes (speed up 5, speed down 0). After the centrifugation, the centrifuge tube was placed on a centrifuge tube rack, the middle leukocyte layer was aspirated with a pipette, and added to 10 ml of PBS, they were mixed well and placed in a centrifuge, and centrifuged at 1500 rpm. The cell supernatant was discarded after 10 min and the cells were resuspended in 5 ml of PBS, centrifuged at 1500 rpm for another 10 min, and the washing process was repeated once. The cells obtained were leukocytes in the tumor tissue. […]

COc1cc2nccc(Oc3ccc(NC(=O)Cc4ccc(Cl)c(C(F)(F)F)c4)cc3)c2cc1OC [Example 2, N-(4-((6,7-dimethoxyquinolin-4-yl)oxy)phenyl)-2-(4-chloro-3-(trifluoromethyl)phenyl)-acetamide]
GI50 [1]: 0.003 µM | GI50 [2]: 0.03 µM | effect on IL-10 secretion compared with positive controls ([3]; 1 μM, same dose as PLX3397 and BLZ945, FIG. 1): better for Compound 2 at 1 μM than positive controls PLX3397 and BLZ945 | level of IL-10 secretion in M2 macrophages ([3]; RAW264.7 induced with IL-4 or IL-13, treated 72 hours, serial dilutions, FIG. 1): decreased in a dose-dependent manner | toxicity (mouse body weight) ([4]; 50 mg/kg oral once a day, FIG. 6): no obvious toxicity | inhibition effect of mouse tumors ([4]; 50 mg/kg oral once a day, FIG. 7): good inhibition effect of mouse tumors | inhibitory effect on mouse tumors compared with PLX3397 ([4]; 50 mg/kg oral once a day, as days of administration increased): superior to the effect of the control compound PLX3397 | proportion of M1 macrophages around the tumor versus solvent group ([4]; 50 mg/kg oral, flow cytometry, FIG. 8): much higher than that in the solvent group | proportion of M1 macrophages in the tumor microenvironment versus PLX3397 group ([4]; same dose 50 mg/kg, FIG. 8): higher than that of the PLX3397 group
